Results reported in PubChem BioAssay (NCI).
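Results reflect a 48-hour exposure of cells in 96-well plates to compound at five concentrations. Abbreviation: GI50, concentration required for 50% inhibition of growth. TGI marks complete inhibition of growth.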

Experiments:
Test in all cases: growth of human tumour cells (NCI), 48 h
786-0 renal = tested on: 786-0 renal
A498 renal = tested on: A498 renal
A549 NSCLC = tested on: A549 NSCLC
ACHN renal = tested on: ACHN renal
BT-549 breast = tested on: BT-549 breast
CAKI-1 renal = tested on: CAKI-1 renal
CCRF-CEM leukemia = tested on: CCRF-CEM leukemia
COLO 205 colon = tested on: COLO 205 colon
DU-145 prostate = tested on: DU-145 prostate
EKVX NSCLC = tested on: EKVX NSCLC
HCC-2998 colon = tested on: HCC-2998 colon
HCT-116 colon = tested on: HCT-116 colon
HCT-15 colon = tested on: HCT-15 colon
HL-60(TB) leukemia = tested on: HL-60(TB) leukemia
HOP-62 NSCLC = tested on: HOP-62 NSCLC
HOP-92 NSCLC = tested on: HOP-92 NSCLC
HS 578T breast = tested on: HS 578T breast
HT29 colon = tested on: HT29 colon
IGROV1 ovarian = tested on: IGROV1 ovarian
K-562 leukemia = tested on: K-562 leukemia
KM12 colon = tested on: KM12 colon
LOX IMVI melanoma = tested on: LOX IMVI melanoma
M14 melanoma = tested on: M14 melanoma
MALME-3M melanoma = tested on: MALME-3M melanoma
MCF7 breast = tested on: MCF7 breast
MDA-MB-231 breast = tested on: MDA-MB-231 breast
MDA-MB-435 = tested on: MDA-MB-435
MOLT-4 leukemia = tested on: MOLT-4 leukemia
NCI-H226 lung = tested on: NCI-H226 lung
NCI-H23 lung = tested on: NCI-H23 lung
NCI-H460 lung = tested on: NCI-H460 lung
NCI-H522 lung = tested on: NCI-H522 lung
NCI/ADR-RES ovarian = tested on: NCI/ADR-RES ovarian
OVCAR-4 ovarian = tested on: OVCAR-4 ovarian
OVCAR-5 ovarian = tested on: OVCAR-5 ovarian
OVCAR-8 ovarian = tested on: OVCAR-8 ovarian
PC-3 prostate = tested on: PC-3 prostate
RPMI-8226 leukemia = tested on: RPMI-8226 leukemia
RXF 393 renal = tested on: RXF 393 renal
SF-268 CNS = tested on: SF-268 CNS
SF-295 CNS = tested on: SF-295 CNS
SF-539 CNS = tested on: SF-539 CNS
SK-MEL-2 melanoma = tested on: SK-MEL-2 melanoma
SK-MEL-28 melanoma = tested on: SK-MEL-28 melanoma
SK-MEL-5 melanoma = tested on: SK-MEL-5 melanoma
SK-OV-3 ovarian = tested on: SK-OV-3 ovarian
SN12C renal = tested on: SN12C renal
SNB-19 CNS = tested on: SNB-19 CNS
SNB-75 CNS = tested on: SNB-75 CNS
SR leukemia = tested on: SR leukemia
SW-620 colon = tested on: SW-620 colon
T-47D breast = tested on: T-47D breast
TK-10 renal = tested on: TK-10 renal
U251 CNS = tested on: U251 CNS
UACC-257 melanoma = tested on: UACC-257 melanoma
UACC-62 melanoma = tested on: UACC-62 melanoma
UO-31 renal = tested on: UO-31 renal

COC(=O)C[Se]C(=O)Cc1c(C)n(C(=O)c2ccc(Cl)cc2)c2ccc(OC)cc12
GI50 (786-0 renal): 2.64 µM | TGI (786-0 renal): 6.58 µM | GI50 (A498 renal): 2.43 µM | TGI (A498 renal): 6.36 µM | GI50 (A549 NSCLC): 1.96 µM | TGI (A549 NSCLC): 4.63 µM | GI50 (ACHN renal): 3.36 µM | TGI (ACHN renal): 10.2 µM | GI50 (BT-549 breast): 1.91 µM | TGI (BT-549 breast): 4.21 µM | GI50 (CAKI-1 renal): 2.63 µM | TGI (CAKI-1 renal): 6.85 µM | GI50 (CCRF-CEM leukemia): 3.04 µM | TGI (CCRF-CEM leukemia): 16.8 µM | GI50 (COLO 205 colon): 1.83 µM | TGI (COLO 205 colon): 4.4 µM | GI50 (DU-145 prostate): 2.72 µM | TGI (DU-145 prostate): 8.01 µM | GI50 (EKVX NSCLC): 1.71 µM | TGI (EKVX NSCLC): 4.26 µM | GI50 (HCC-2998 colon): 4.96 µM | TGI (HCC-2998 colon): 16.9 µM | GI50 (HCT-116 colon): 1.8 µM | TGI (HCT-116 colon): 4.21 µM | GI50 (HCT-15 colon): 2.2 µM | TGI (HCT-15 colon): 6.03 µM | GI50 (HL-60(TB) leukemia): 2.9 µM | TGI (HL-60(TB) leukemia): 19.7 µM | GI50 (HOP-62 NSCLC): 1.74 µM | TGI (HOP-62 NSCLC): 4.14 µM | GI50 (HOP-92 NSCLC): 1.98 µM | TGI (HOP-92 NSCLC): 4.27 µM | GI50 (HS 578T breast): 2.33 µM | TGI (HS 578T breast): 8.84 µM | GI50 (HT29 colon): 2.84 µM | TGI (HT29 colon): 8.17 µM | GI50 (IGROV1 ovarian): 2.1 µM | TGI (IGROV1 ovarian): 4.91 µM | GI50 (K-562 leukemia): 5.3 µM | TGI (K-562 leukemia): > 100 µM | GI50 (KM12 colon): 3.06 µM | TGI (KM12 colon): 12.6 µM | GI50 (LOX IMVI melanoma): 1.81 µM | TGI (LOX IMVI melanoma): 3.79 µM | GI50 (M14 melanoma): 1.64 µM | TGI (M14 melanoma): 4.91 µM | GI50 (MALME-3M melanoma): 1.81 µM | TGI (MALME-3M melanoma): 5.31 µM | GI50 (MCF7 breast): 2.57 µM | TGI (MCF7 breast): 11.3 µM | GI50 (MDA-MB-231 breast): 2.27 µM | TGI (MDA-MB-231 breast): 5.89 µM | GI50 (MDA-MB-435): 1.75 µM | TGI (MDA-MB-435): 3.43 µM | GI50 (MOLT-4 leukemia): 5.29 µM | TGI (MOLT-4 leukemia): 90.1 µM | GI50 (NCI-H226 lung): 2.03 µM | TGI (NCI-H226 lung): 6.53 µM | GI50 (NCI-H23 lung): 2.41 µM | TGI (NCI-H23 lung): 6.41 µM | GI50 (NCI-H460 lung): 2.62 µM | TGI (NCI-H460 lung): 8.34 µM | GI50 (NCI-H522 lung): 9.61 µM | TGI (NCI-H522 lung): 28.8 µM | GI50 (NCI/ADR-RES ovarian): 2.41 µM | TGI (NCI/ADR-RES ovarian): 6.92 µM | GI50 (OVCAR-4 ovarian): 2.27 µM | TGI (OVCAR-4 ovarian): 8.1 µM | GI50 (OVCAR-5 ovarian): 2.21 µM | TGI (OVCAR-5 ovarian): 6 µM | GI50 (OVCAR-8 ovarian): 2.27 µM | TGI (OVCAR-8 ovarian): 6.22 µM | GI50 (PC-3 prostate): 3.91 µM | TGI (PC-3 prostate): 15.5 µM | GI50 (RPMI-8226 leukemia): 3.36 µM | TGI (RPMI-8226 leukemia): 22.9 µM | GI50 (RXF 393 renal): 1.73 µM | TGI (RXF 393 renal): 5.28 µM | GI50 (SF-268 CNS): 3.18 µM | TGI (SF-268 CNS): 12.3 µM | GI50 (SF-295 CNS): 2.21 µM | TGI (SF-295 CNS): 4.92 µM | GI50 (SF-539 CNS): 2.7 µM | TGI (SF-539 CNS): 7.69 µM | GI50 (SK-MEL-2 melanoma): 2.44 µM | TGI (SK-MEL-2 melanoma): 7.79 µM | GI50 (SK-MEL-28 melanoma): 3.26 µM | TGI (SK-MEL-28 melanoma): 12 µM | GI50 (SK-MEL-5 melanoma): 1.83 µM | TGI (SK-MEL-5 melanoma): 3.42 µM | GI50 (SK-OV-3 ovarian): 5.57 µM | TGI (SK-OV-3 ovarian): 19.2 µM | GI50 (SN12C renal): 3.09 µM | TGI (SN12C renal): 10.9 µM | GI50 (SNB-19 CNS): 3.32 µM | TGI (SNB-19 CNS): 12.4 µM | GI50 (SNB-75 CNS): 1.8 µM | TGI (SNB-75 CNS): 4.17 µM | GI50 (SR leukemia): 3.74 µM | TGI (SR leukemia): > 100 µM | GI50 (SW-620 colon): 2.03 µM | TGI (SW-620 colon): 4.39 µM | GI50 (T-47D breast): 7.32 µM | TGI (T-47D breast): 38 µM | GI50 (TK-10 renal): 3.72 µM | TGI (TK-10 renal): 18.2 µM | GI50 (U251 CNS): 2.38 µM | TGI (U251 CNS): 5.8 µM | GI50 (UACC-257 melanoma): 2.17 µM | TGI (UACC-257 melanoma): 7.37 µM | GI50 (UACC-62 melanoma): 2.85 µM | TGI (UACC-62 melanoma): 14 µM | GI50 (UO-31 renal): 1.52 µM | TGI (UO-31 renal): 8.03 µM
